What all share (experiment): Screen Quest Fluo-8 No Wash Calcium Assay (Bz-ATP evoked Ca2+ influx, FLIPR)
Type in all cases: cell-based

The target in experiment [1] is T1, P2X7 receptor (Rattus norvegicus, UniProt Q64663).
T1 construct: rP2X7 (IC50; nM); other: rP2X7; HEK-293 cells stably transfected with P2X7 receptor, Bz-ATP at EC80, Fluo-8 NW; potency
T1 sequence (Q64663 1-595): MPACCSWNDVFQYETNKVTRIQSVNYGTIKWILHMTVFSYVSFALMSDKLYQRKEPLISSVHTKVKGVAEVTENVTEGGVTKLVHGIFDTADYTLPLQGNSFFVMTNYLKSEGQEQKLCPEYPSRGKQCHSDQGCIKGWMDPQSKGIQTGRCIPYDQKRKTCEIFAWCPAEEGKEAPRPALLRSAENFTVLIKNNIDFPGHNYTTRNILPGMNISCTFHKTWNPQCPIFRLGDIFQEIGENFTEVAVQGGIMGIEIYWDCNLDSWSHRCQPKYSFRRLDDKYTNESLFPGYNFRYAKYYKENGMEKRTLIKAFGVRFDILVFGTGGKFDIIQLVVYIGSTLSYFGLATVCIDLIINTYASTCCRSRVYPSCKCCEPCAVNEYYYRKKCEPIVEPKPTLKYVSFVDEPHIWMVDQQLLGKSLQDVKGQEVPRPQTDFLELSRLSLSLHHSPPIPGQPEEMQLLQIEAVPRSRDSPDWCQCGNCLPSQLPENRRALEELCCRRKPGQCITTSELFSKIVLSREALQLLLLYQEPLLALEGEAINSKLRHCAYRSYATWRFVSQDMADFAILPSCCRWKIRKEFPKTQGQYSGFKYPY
Conditions: rP2X7; HEK-293 cells stably transfected with P2X7 receptor, Bz-ATP at EC80, Fluo-8 NW; potency ranges A-D. The procedure:
(§1) Extracellular binding of Bz-ATP to P2X7 receptor opens the channel and allows Ca2+ influx into the cells. […] Once inside the cell, the lipophilic blocking groups of Fluo-8 are cleaved by non-specific cell esterases, resulting in a negatively-charged fluorescent dye that stays inside cells. Its fluorescence increases upon binding to calcium.
(§2) HEK-293 cells stably transfected with P2X7 receptor were seeded overnight in growth medium at 10,000 to 20,000 cell/well in 384-well plate. 24 hours later, the medium was removed and the cells were pre-loaded at RT for 1 hour with 20 μL/w of Fluo-8 NW. Then 10 μL/w of tests compounds and reference antagonist A438079 at 3×-concentration were injected with the […] and the kinetic response over a period of five minutes was monitored. A second injection of 15 μL/w of 3× reference activator (Bz-ATP at EC80) was performed with the […] and the signal of the emitted fluorescence was recorded for additional three minutes. All the experiment was carried out in a Low Divalent Cation Assay Buffer (0.3 mM Ca^2+ and 0 mM Mg^2+). The effect of the test compounds was measured as percent inhibition vs the reference antagonist and IC50 values were calculated accordingly.

The target in experiment [2] is T2, P2X7 receptor (Mus musculus, UniProt Q9Z1M0).
T2 construct: mP2X7 (IC50; nM); other: mP2X7; HEK-293 cells stably transfected with P2X7 receptor, Bz-ATP at EC80, Fluo-8 NW; potency
T2 sequence (Q9Z1M0 1-595): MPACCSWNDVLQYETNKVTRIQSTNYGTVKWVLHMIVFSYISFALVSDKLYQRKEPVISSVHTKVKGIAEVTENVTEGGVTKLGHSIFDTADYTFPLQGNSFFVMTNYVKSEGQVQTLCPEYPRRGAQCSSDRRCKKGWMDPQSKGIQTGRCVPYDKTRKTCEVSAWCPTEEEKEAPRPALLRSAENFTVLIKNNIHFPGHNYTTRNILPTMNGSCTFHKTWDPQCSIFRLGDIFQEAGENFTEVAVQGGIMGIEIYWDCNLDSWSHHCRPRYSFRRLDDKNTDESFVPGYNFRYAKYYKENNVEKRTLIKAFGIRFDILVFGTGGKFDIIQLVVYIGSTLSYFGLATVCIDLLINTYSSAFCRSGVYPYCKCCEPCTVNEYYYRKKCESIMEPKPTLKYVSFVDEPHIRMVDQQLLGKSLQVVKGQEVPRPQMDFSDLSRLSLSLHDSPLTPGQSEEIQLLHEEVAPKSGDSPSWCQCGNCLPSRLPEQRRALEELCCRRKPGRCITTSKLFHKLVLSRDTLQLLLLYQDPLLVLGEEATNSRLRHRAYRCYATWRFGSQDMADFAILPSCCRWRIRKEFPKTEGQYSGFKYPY
To be noted: mP2X7; HEK-293 cells stably transfected with P2X7 receptor, Bz-ATP at EC80, Fluo-8 NW; potency ranges A-D. The procedure: as §1, §2

The target in experiment [3] is T3, P2X7 receptor (Homo sapiens, UniProt Q99572).
T3 sequence (Q99572 1-595): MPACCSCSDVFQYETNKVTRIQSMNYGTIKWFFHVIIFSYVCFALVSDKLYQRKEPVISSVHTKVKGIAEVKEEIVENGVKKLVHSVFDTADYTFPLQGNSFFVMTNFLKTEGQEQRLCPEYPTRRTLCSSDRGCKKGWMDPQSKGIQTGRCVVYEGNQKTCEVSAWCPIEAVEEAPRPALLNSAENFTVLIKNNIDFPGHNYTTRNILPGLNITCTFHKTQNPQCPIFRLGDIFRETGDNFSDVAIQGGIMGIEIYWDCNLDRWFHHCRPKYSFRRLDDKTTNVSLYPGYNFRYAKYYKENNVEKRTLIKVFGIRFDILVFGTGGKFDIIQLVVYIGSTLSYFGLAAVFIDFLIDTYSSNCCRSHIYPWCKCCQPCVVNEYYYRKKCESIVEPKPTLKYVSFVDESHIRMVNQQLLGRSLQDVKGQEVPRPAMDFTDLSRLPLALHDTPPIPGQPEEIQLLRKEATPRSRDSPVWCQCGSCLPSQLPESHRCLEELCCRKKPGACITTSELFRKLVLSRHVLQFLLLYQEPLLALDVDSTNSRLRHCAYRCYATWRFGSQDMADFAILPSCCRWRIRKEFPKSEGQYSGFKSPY
Also noted: hP2X7 (IC50; nM); other: hP2X7; HEK-293 cells stably transfected with P2X7 receptor, Bz-ATP at EC80, Fluo-8 NW; potency. To be noted: hP2X7; HEK-293 cells stably transfected with P2X7 receptor, Bz-ATP at EC80, Fluo-8 NW; potency ranges A-D. The procedure:
as §1, §2

What is called IC50 is the concentration that inhibits the measured activity by half. Take `O=c1onc(C(O)c2cccc(C(F)(F)F)c2Cl)n1Cc1ccccc1` (stereo not drawn) [Example 136, 4-benzyl-3-{[2-chloro-3-(trifluoromethyl)phenyl](hydroxy)methyl}-4,5-dihydro-1,2,4-oxadiazol-5-one]: the 50% inhibitory concentration (IC50) on P2X7 receptor [1] is > 10000 nM; on P2X7 receptor [2], > 10000 nM; at P2X7 receptor [3], 1000 to 10000 nM.
Take `O=c1onc(Cc2c(F)cccc2Cl)n1CC1CCOCC1` [Example 93, 3-[(2-chloro-6-fluorophenyl)methyl]-4-(oxan-4-ylmethyl)-4,5-dihydro-1,2,4-oxadiazol-5-one]: the IC50 on P2X7 receptor [1] lay in the range of 200 to 1000 nM; on P2X7 receptor [2], 1000 to 10000 nM; on P2X7 receptor [3], 1000 to 10000 nM.
Take `Cc1nnc(Cn2c(Cc3c(F)cccc3Cl)noc2=O)o1` [Example 41, 3-[(2-chloro-6-fluorophenyl)methyl]-4-[(5-methyl-1,3,4-oxadiazol-2-yl)methyl]-4,5-dihydro-1,2,4-oxadiazol-5-one]: the IC50 on P2X7 receptor [1], on P2X7 receptor [2] and at P2X7 receptor [3] was > 10000 nM in each case.
For the compound `O=c1onc(CN2CCCCC2)n1Cc1ccc(F)cc1` [Example 240, 4-[(4-fluorophenyl)methyl]-3-(piperidin-1-ylmethyl)-4,5-dihydro-1,2,4-oxadiazol-5-one], the IC50 on P2X7 receptor [1] was 1000 to 10000 nM; at P2X7 receptor [2] it was > 10000 nM; at P2X7 receptor [3], > 10000 nM.
For `O=c1onc(Cc2cccc(C(F)(F)F)c2Cl)n1Cc1c(F)cccc1Cl` [Example 16, 3-{[2-chloro-3-(trifluoromethyl)phenyl]methyl}-4-[(2-chloro-6-fluorophenyl)methyl]-4,5-dihydro-1,2,4-oxadiazol-5-one], the IC50 is 1000 to 10000 nM at P2X7 receptor [1], > 10000 nM at P2X7 receptor [2] and 1000 to 10000 nM on P2X7 receptor [3].
Consider `O=c1onc(CC2CCC(F)(F)CC2)n1Cc1ccno1` [Example 199, 3-[(4,4-difluorocyclohexyl)methyl]-4-[(1,2-oxazol-5-yl)methyl]-1,2,4-oxadiazol-5(4H)-one], for which the values for the IC50 on P2X7 receptor [1], on P2X7 receptor [2] and on P2X7 receptor [3] were 1000 to 10000 nM, 1000 to 10000 nM and > 10000 nM, respectively.
Turning to `Cc1noc(Cn2c(CC3CCC(F)(F)CC3)noc2=O)n1` [Example 197, 3-[(4,4-difluorocyclohexyl)methyl]-4-[(3-methyl-1,2,4-oxadiazol-5-yl)methyl]-1,2,4-oxadiazol-5(4H)-one], the IC50 on P2X7 receptor [1], on P2X7 receptor [2] and at P2X7 receptor [3] was > 10000 nM in each case.
Take `Cc1noc(C)c1Cc1noc(=O)n1Cc1c(F)cccc1Cl` [Example 209, 4-[(2-chloro-6-fluorophenyl)methyl]-3-[(dimethyl-1,2-oxazol-4-yl)methyl]-4,5-dihydro-1,2,4-oxadiazol-5-one]: the IC50 is > 10000 nM at P2X7 receptor [1], > 10000 nM on P2X7 receptor [2] and 1000 to 10000 nM on P2X7 receptor [3].
For the compound `O=c1onc(CN2CCCCC2)n1Cc1c(F)cccc1Cl` [Example 241, 4-[(2-chloro-6-fluorophenyl)methyl]-3-[(piperidin-1-yl)methyl]-1,2,4-oxadiazol-5(4H)-one], the results for the IC50 on P2X7 receptor [1], at P2X7 receptor [2] and at P2X7 receptor [3] were < 200 nM, 200 to 1000 nM and 200 to 1000 nM, respectively.
Turning to `CC(c1c(F)cccc1Cl)c1noc(=O)n1Cc1ccc(F)cc1` (stereo not drawn) [Example 78, 3-[1-(2-chloro-6-fluorophenyl)ethyl]-4-[(4-fluorophenyl)methyl]-4,5-dihydro-1,2,4-oxadiazol-5-one], the IC50 at P2X7 receptor [1], at P2X7 receptor [2] and at P2X7 receptor [3] was > 10000 nM throughout.
Take `O=c1onc(CN2CCOc3ccccc32)n1CC1CCCCC1` [Example 230, 4-(cyclohexylmethyl)-3-(3,4-dihydro-2H-1,4-benzoxazin-4-ylmethyl)-4,5-dihydro-1,2,4-oxadiazol-5-one]: the IC50 on P2X7 receptor [1], on P2X7 receptor [2] and at P2X7 receptor [3] was < 200 nM throughout.
In the case of `CC(c1ccc(F)cc1)n1c(Cc2ccc(F)cc2)noc1=O` (stereo not drawn) [Example 11, 4-[1-(4-fluorophenyl)ethyl]-3-[(4-fluorophenyl)methyl]-4,5-dihydro-1,2,4-oxadiazol-5-one], the IC50 at P2X7 receptor [1], at P2X7 receptor [2] and on P2X7 receptor [3] was 1000 to 10000 nM throughout.
With `O=c1onc(Cc2c(F)cccc2Cl)n1CC1CC=CC1` [Example 183, 3-[(2-chloro-6-fluorophenyl)methyl]-4-(cyclopent-3-en-1-ylmethyl)-4,5-dihydro-1,2,4-oxadiazol-5-one], the results for the IC50 at P2X7 receptor [1], at P2X7 receptor [2] and at P2X7 receptor [3] were 200 to 1000 nM, 1000 to 10000 nM and 200 to 1000 nM, respectively.
As for `Cc1ncccc1Cn1c(Cc2c(F)cccc2Cl)noc1=O` [Example 24, 3-[(2-chloro-6-fluorophenyl)methyl]-4-[(2-methylpyridin-3-yl)methyl]-4,5-dihydro-1,2,4-oxadiazol-5-one], the IC50 is > 10000 nM on P2X7 receptor [1], 1000 to 10000 nM at P2X7 receptor [2] and > 10000 nM at P2X7 receptor [3].
For `Cc1cc(F)ccc1Cn1c(CC2CCC(F)(F)CC2)noc1=O` [Example 171, 3-[(4,4-difluorocyclohexyl)methyl]-4-[(4-fluoro-2-methylphenyl)methyl]-4,5-dihydro-1,2,4-oxadiazol-5-one], the IC50 on P2X7 receptor [1] was 200 to 1000 nM; at P2X7 receptor [2], 1000 to 10000 nM; at P2X7 receptor [3], 1000 to 10000 nM.
As to `Cn1ccnc1Cn1c(Cc2c(F)cccc2Cl)noc1=O` [Example 47, 3-[(2-chloro-6-fluorophenyl)methyl]-4-[(1-methyl-1H-imidazol-2-yl)methyl]-4,5-dihydro-1,2,4-oxadiazol-5-one], the IC50 on P2X7 receptor [1], on P2X7 receptor [2] and on P2X7 receptor [3] was > 10000 nM throughout.
For the compound `O=c1onc(Cc2ccc(F)cc2Cl)n1Cc1c(F)cccc1Cl` [Example 14, 3-[(2-chloro-4-fluorophenyl)methyl]-4-[(2-chloro-6-fluorophenyl)methyl]-4,5-dihydro-1,2,4-oxadiazol-5-one], the values for the IC50 on P2X7 receptor [1], at P2X7 receptor [2] and on P2X7 receptor [3] were 1000 to 10000 nM, 1000 to 10000 nM and 200 to 1000 nM, respectively.

The values are drawn from US11623919B2, “Heterocyclic P2X7 antagonists” (AXXAM S.P.A., priority 2017, dated 2023).
